According to patent US11345711B2, “8,9-dihydroimidazo[1,2-a]pyrimido[5,4-e]pyrimidin-5(6H)-ones” (IMPACT THERAPEUTICS (SHANGHAI), INC, priority 2016, dated 2022):
Read-outs that look alike come from different tables or passages of the source.

Assays:
Wee1 (h) = Wee1 (h) (Homo sapiens, UniProt P30291); test: Wee1 kinase (h) detection method, [γ-33P]-ATP filter assay; assay type: biochemical
LoVo cells = test: MTT based cell viability assay on LoVo cells; conditions: Homo sapiens, LoVo, 72 h, 3 d, read-out: IC50, growth inhibition of LoVo cells
In short: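 Inhibition of LoVo proliferation was derived as IC50 from a sigmoidal dose-response fit of cell survival. Readout was MTT (0.5 mg/mL, 4 h) with absorbance at 552/630/690 nm, after 3-day treatment at 37 °C. Eight-point series from 10 μM to 0.01 μM, DMSO control, 1% DMSO final.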

NCI-H1299 cells = test: MTT based cell viability assay on NCI-H1299 cells; conditions: Homo sapiens, read-out: IC50, growth inhibition of NCI-H1299 cells
In short: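 NCI-H1299 cells (1000/well, settled overnight) were exposed for 3 d at 37 °C, 5% CO2, to an eight-point series of 10 μM to 0.01 μM plus DMSO blank, as prepared in DMSO (final DMSO 1‰). MTT (0.5 mg/mL, 4 h) was read at 552/630/690 nm. IC50 came from sigmoidal dose-response fits of survival.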

Wee1 (h), sequence (P30291 whole entry): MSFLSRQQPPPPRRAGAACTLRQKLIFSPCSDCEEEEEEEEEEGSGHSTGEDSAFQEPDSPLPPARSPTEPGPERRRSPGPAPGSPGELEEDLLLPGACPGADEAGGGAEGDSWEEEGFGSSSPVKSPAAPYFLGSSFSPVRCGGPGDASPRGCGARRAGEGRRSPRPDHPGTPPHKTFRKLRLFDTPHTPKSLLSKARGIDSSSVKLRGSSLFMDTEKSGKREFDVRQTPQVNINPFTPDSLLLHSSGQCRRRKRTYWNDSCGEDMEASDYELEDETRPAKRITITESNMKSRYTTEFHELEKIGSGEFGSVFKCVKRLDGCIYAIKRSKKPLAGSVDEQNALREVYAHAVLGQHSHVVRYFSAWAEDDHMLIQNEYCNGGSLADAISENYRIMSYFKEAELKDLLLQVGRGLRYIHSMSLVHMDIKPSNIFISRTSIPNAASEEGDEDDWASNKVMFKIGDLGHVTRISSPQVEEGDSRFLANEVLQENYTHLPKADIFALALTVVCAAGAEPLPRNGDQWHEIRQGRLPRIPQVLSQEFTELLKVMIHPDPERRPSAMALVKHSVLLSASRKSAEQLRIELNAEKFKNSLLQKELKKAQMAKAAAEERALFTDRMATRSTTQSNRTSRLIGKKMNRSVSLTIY

Compound	Inh. (%) of Wee1 kinase enzyme activity (Wee1 (h); C 1 μm compound) [%]	IC50 (LoVo cells) [nM]	IC50 (NCI-H1299 cells; NCI-H1299 cells) [nM]	Inh. (%) of Wee1 kinase enzyme activity (Wee1 (h); C 0.01 μm compound) [%]	Inh. (%) of Wee1 kinase enzyme activity (Wee1 (h); C 0.1 μm compound) [%]	IC50 (NCI-H1299 cells; NCI-H1299, NCI-H1299 cells) [nM]
CN1CCN(c2ccc(Nc3ncc4c(n3)N3CCN=C3N(c3c(F)cccc3Cl)C4=O)c(C(F)(F)F)c2)CC1 [Example 40, 6-(2-Chloro-6-fluorophenyl)-2-((4-(4-methylpiperazin-1-yl)-2-(trifluoromethyl)phenyl)amino)-8,9-dihydroimidazo[1,2-a]pyrimido[5,4-e]pyrimidin-5(6H)-one]	4	> 100000	> 10000			
C[C@@H]1CN(c2ccc(Nc3ncc4c(n3)N3CCN=C3N(c3c(F)cccc3Cl)C4=O)c(C(F)(F)F)c2)C[C@H](C)N1C [Example 41, 6-(2-Chloro-6-fluorophenyl)-2-((2-trifluoromethyl-4-((3S,5R)-3,4,5-trimethylpiperazin-1-yl)phenyl)amino)-8,9-dihydroimidazo[1,2-a]pyrimido[5,4-e]pyrimidin-5(6H)-one]	2	> 100000	> 10000			
Cc1cc(N2CCN(C)CC2)ccc1Nc1ncc2c(n1)N1CCN=C1N(c1c(F)cccc1Cl)C2=O [Example 42, 6-(2-Chloro-6-fluorophenyl)-2-((2-methyl-4-(4-methylpiperazin-1-yl)phenyl)amino)-8,9-dihydroimidazo[1,2-a]pyrimido[5,4-e]pyrimidin-5(6H)-one]	19	> 100000	> 10000			
Cc1cc(N2C[C@@H](C)N(C)[C@@H](C)C2)ccc1Nc1ncc2c(n1)N1CCN=C1N(c1c(F)cccc1Cl)C2=O [Example 43, 6-(2-Chloro-6-fluorophenyl)-2-((2-methyl-4-((3S,5R)-3,4,5-trimethylpiperazin-1-yl)phenyl)amino)-8,9-dihydroimidazo[1,2-a]pyrimido[5,4-e]pyrimidin-5(6H)-one]	27	> 100000	> 10000			
CN1CCN(c2ccc(Nc3ncc4c(n3)N3CCN=C3N(c3c(F)cccc3Cl)C4=O)cc2F)CC1 [Example 44, 6-(2-Chloro-6-fluorophenyl)-2-((3-fluoro-4-(4-methylpiperazin-1-yl)phenyl)amino)-8,9-dihydroimidazo[1,2-a]pyrimido[5,4-e]pyrimidin-5(6H)-one]	93	37.1		23	75	597
C[C@@H]1CN(c2ccc(Nc3ncc4c(n3)N3CCN=C3N(c3c(F)cccc3Cl)C4=O)cc2F)C[C@H](C)N1C [Example 45, 6-(2-Chloro-6-fluorophenyl)-2-((3-fluoro-4-((3S,5R)-3,4,5-trimethylpiperazin-1-yl)phenyl)amino)-8,9-dihydroimidazo[1,2-a]pyrimido[5,4-e]pyrimidin-5(6H)-one]	95	1180		28	80	616
CN1CCN(c2ccc(Nc3ncc4c(n3)N3CCN=C3N(c3c(F)cccc3Cl)C4=O)cc2Cl)CC1 [Example 46, 6-(2-Chloro-6-fluorophenyl)-2-((3-chloro-4-(4-methylpiperazin-1-yl)phenyl)amino)-8,9-dihydroimidazo[1,2-a]pyrimido[5,4-e]pyrimidin-5(6H)-one]	97	26.1		36	85	528
C[C@@H]1CN(c2ccc(Nc3ncc4c(n3)N3CCN=C3N(c3c(F)cccc3Cl)C4=O)cc2Cl)C[C@H](C)N1C [Example 47, 2-((3-Chloro-4-((3S,5R)-3,4,5-trimethylpiperazin-1-yl)phenyl)amino)-6-(2-chloro-6-fluorophenyl)-8,9-dihydroimidazo[1,2-a]pyrimido[5,4-e]pyrimidin-5(6H)-one]	98	30.5	330	45	89	
CN1CCN(c2ccc(Nc3ncc4c(n3)N3CCN=C3N(c3c(F)cccc3Cl)C4=O)cc2C(F)(F)F)CC1 [Example 48, 6-(2-Chloro-6-fluorophenyl)-2-((4-(4-methylpiperazin-1-yl)-3-(trifluoromethyl)phenyl)amino)-8,9-dihydroimidazo[1,2-a]pyrimido[5,4-e]pyrimidin-5(6H)-one]	91	117		29	75	1120
C[C@@H]1CN(c2ccc(Nc3ncc4c(n3)N3CCN=C3N(c3c(F)cccc3Cl)C4=O)cc2C(F)(F)F)C[C@H](C)N1C [Example 49, 6-(2-Chloro-6-fluorophenyl)-2-((3-trifluoromethyl-4-((3S,5R)-3,4,5-trimethylpiperazin-1-yl)phenyl)amino)-8,9-dihydroimidazo[1,2-a]pyrimido[5,4-e]pyrimidin-5(6H)-one]	95	96.9	543	43	86	
Cc1cc(Nc2ncc3c(n2)N2CCN=C2N(c2c(F)cccc2Cl)C3=O)ccc1N1CCN(C)CC1 [Example 50, 6-(2-Chloro-6-fluorophenyl)-2-((3-methyl-4-(4-methylpiperazin-1-yl)phenyl)amino)-8,9-dihydroimidazo[1,2-a]pyrimido[5,4-e]pyrimidin-5(6H)-one]	100	58.9		62	95	229
Cc1cc(Nc2ncc3c(n2)N2CCN=C2N(c2c(F)cccc2Cl)C3=O)ccc1N1C[C@@H](C)N(C)[C@@H](C)C1 [Example 51, 6-(2-Chloro-6-fluorophenyl)-2-((3-methyl-4-((3S,5R)-3,4,5-trimethylpiperazin-1-yl)phenyl)amino)-8,9-dihydroimidazo[1,2-a]pyrimido[5,4-e]pyrimidin-5(6H)-one]	96	105		66	86	165
Cc1cc(Nc2ncc3c(n2)N2CCN=C2N(c2c(F)cccc2Cl)C3=O)ccc1N1CCN(C(C)C)CC1 [Example 52, 6-(2-Chloro-6-fluorophenyl)-2-((4-(4-isopropylpiperazin-1-yl)-3-methylphenyl)amino)-8,9-dihydroimidazo[1,2-a]pyrimido[5,4-e]pyrimidin-5(6H)-one]	93	87.4		111	80	127
